Measured values reported in article PMC9738107, “Targeting of the ELR+CXCL/CXCR1/2 Pathway Is a Relevant Strategy for the Treatment of Paediatric Medulloblastomas” (Cells, 2022).

Experiments:
Format in all cases: cell-based, human
DR1 cells = assay: Cell death assay (PI staining), radiation-resistant cells; conditions: DR1 compared to astrocytes
Experimental: (§1) As with naïve cells, we determined the IC50 for DR1, DR2, […] and their SI compared to astrocytes.
(§2) Figure 8 C29 is efficient on radioresistant MB cell lines. (A) Cell death after 48 h of treatment with control (DMSO, CT) or C29 1, 2.5, or 5 µM on radiation-resistant cells (RR) and normal cells (N), n = 3. Statistics were performed using the one-way method ANOVA. * p < 0.05, ** p < 0.01, *** p < 0.001. For this figure, DR1 = D1, DR2 = D2, HR1 = H1, HR2 = H2, and C8D1A = C8. (B) Proliferation of DR1/DR2 (A) and HR1/HR2 (B) radio-resistant cells after 1 µM C29 treatment or control (DMSO), n = 3. (C) Clonogenic assay on DR1, DR2 (n = 3) and HR1, HR2 (n = 3) cells after treatment with control (DMSO) or C29 (1 µM or 2.5 µM). (D) Cell migration through the Boyden chamber of DR1 and DR2 cells specifically attracted by 200 ng/mL CXCL8. Cells were treated with control (DMSO) or C29 (1 and 2.5 µM). Results are expressed as percentage of control (n = 3). Scale = 1000 μm. Statistics were performed using Student t-test for 2 comparisons only or ANOVA test for multiple comparisons. * p < 0.05, ** p < 0.01, *** p < 0.001. […]
(§3) each month by using PlasmoTest Kit (#10L07‐MM, InvivoGen, Toulouse, France). Daoy and ONS‐76 belong to the Shh genetic subgroup, D341‐Med and HD‐MB03 to group 3.
(§4) Mouse cerebellar astrocytes C8D1A (CRL ‐2541) were purchased from the American Tissue Culture Collection ATCC. These cells were cultured in DMEM (1X) + GlutaMAX (Invitrogen) medium supplemented with 10% FBS (D. Dutscher). Cells were cultured at 37°C in a 5% CO2 incubator. […]
(§5) After 2 days, cells were treated with control (DMSO) or C29
(§6) (1, 2∙5, 5μM) for 48 hours. After 48 hours, the medium was recovered, and the adherent cells were dissociated and added to the supernatant. Cell death was detected by PE chan‐ nel using FACS Cytoflex (Beckman) immediately after labelling the cells with 1ug/ml pro‐ pidium iodide (Miltenyi Biotec). Data were presented with the percentage of cell death after subtracting the percentage of untreated and unlabelled dead cells.
(§7) Migration in Boyden chambers
(§8) The cells were deprived of serum overnight. 50000 cells were plated in triplicate in serum‐free medium into the upper compartment of pre‐wetted inserts (24‐well plate fit, translucent PET membrane, 8∙0 μ m pore size, Falcon, Thermo Fisher). Medium containing 10% serum or CXCL8 (200ng/ml, Peprotech) was added to the lower compartment. After 24 hours, migrated cells were fixed with 3% paraformaldehyde and stained with Crystal […]
Violet. […]
(§9) 5000 cells were plated in 48 multi‐well plates coated with agarose 0∙8%. […]

HR1 cells = assay: as above; conditions: HR1 compared to astrocytes
Experimental: as §1, §2, §3, §4, §5, §6, §7, §8
Violet. […]
as §9

DR2 cells = assay: as above; conditions: DR2 compared to astrocytes
Experimental: as §1, §2, §3, §4, §5, §6, §7, §8
Violet. […]
as §9

HR2 cells = assay: as above; conditions: HR2 compared to astrocytes
Experimental: as §1, §2, §3, §4, §5, §6, §7, §8
Violet. […]
as §9

[1] = tested on: ONS-76 spheroids expressing DsRed on mouse cerebellar slices; assay: Ex vivo cerebellar organotypic model; conditions: 5 µM C29 daily for five days, after fourteen days
Source text: (§10) To establish ex vivo cultures of cerebellar tissues, mouse cerebellums were surgically harvested and sectioned into 250 μm thick slices using a vibrating blade microtome (RRID:SCR_016495). To comply with the 3-R rule, we used supernumerary mice (aged 12 weeks) that were destined to be sacrificed. A spheroid formed from DsRed-expressing MB cells was then grafted onto each cerebellum slice. These organotypic co-culture models were placed on inserts and maintained as previously described. After daily exposure to C29 or DMSO for 5 consecutive days, tumour growth and invasion within the cerebellum slices were analysed over time using the JuLI™ Stage imaging system and the PHERAstar® FS multiplate reader (λex 580 nm/λem 620 nm–fluorescence signal acquisition with a 15 × 15 matrix scanning mode). […]
(§11) Figure 7 C29 is effective in ex vivo cerebellar organotypic model. […] (B) Spheroid growth was monitored by measuring DsRed fluorescence (PheraStar) over 14 days (C) Statistics were performed using Student t-test. * p < 0.05, n = 5. […] Daily (14 days) images, 30 in total, of spheroid growth in each well (JULISdays) were taken (D) Spheroid growth was monitored by measuring DsRed fluorescence (PheraStar) for 14 days (E) Scale bar = 250 µM. […]

[2] = tested on: HD-MB03 spheroids expressing DsRed on mouse cerebellar slices; assay: Ex vivo cerebellar organotypic model; conditions: 5 µM C29 daily for five days, after fourteen days
Source text: as §10, §11

O=C(Nc1cccc(Cl)c1)Nc1nc2ccc([N+](=O)[O-])cc2s1 [C29, 1-(3-chlorophenyl)-3-(6-nitrobenzo[d]thiazol-2-yl) urea]
Selectivity index (SI) (DR1 cells): 3.9 | Selectivity index (SI) (HR1 cells): 7.7 | Selectivity index (SI) (DR2 cells): 3.9 | Selectivity index (SI) (HR2 cells): 2.8 | Reduction of tumour expansion [1]: 28.9 ± 4.5% | Reduction of tumour expansion [2]: 34.4 ± 8.8%
